The source of these data is PMC10086023, “The effect of barium and strontium on activity of glucoamylase QsGH97a from Qipengyuania seohaensis SW-135” (Scientific Reports, 2023).

This experiment deals with T1, QsGH97a.
T1 construct: pSMT3 His-SUMO fusion in E. coli BL21(DE3), tag cut by Ulp1; probable dimer; forward primer encodes MIRHIALFI; catalytic Glu378, Glu459, Glu483
Nature of the experiment: p-nitrophenol release at […] nm, Michaelis-Menten fit. Conditions: 20 mM Tris-HCl pH 8.0, 50 °C, no added metal ion. Type of experiment: biochemical, Qipengyuania seohaensis.

Regarding `O=[N+]([O-])c1ccc(O[C@H]2O[C@H](CO)[C@@H](O)[C@H](O)[C@H]2O)cc1` [pNPαGlu, p-Nitrophenyl-α-D-glucopyranoside], the Km is 200 ± 20 µM.

By Km is commonly meant the concentration of substrate that gives half-maximal velocity.
